From patent US6602664B2 (priority 1998, dated 2003)
Where “and” joins values, the source holds several entries; their conditions need not be identical. Identical values can stand only once. Like-named read-outs stand apart in the source and are kept apart here.

What was measured:
Format in all cases: cell-based
[1] = system: drug-resistant HIV-1 in MT-4; assay: microbe, parasite or virus in culture
[2] = system: recombinant HIV-1 virus isolates
Excerpt: The aim of the study was to determine the potency of the inhibitory effect of a new generation of NRTIs on Multi Drug Resistant isolates and to compare it with their effect on wild-type HIV-1 isolates. All recombinant viruses were taken from the VIRCO repository of phenotypically and genotypically characterized virus isolates. Hirsch et al. Antiretroviral Drug Resistance Testing in Adults with HIV Infection. JAMA; 1998: 79(24) 1984-1991. See also Pauwels et al. Comprehensive HIV drug Resistance monitoring using rapid, high-throughput phenotypic and genotypic assays with correlative data analysis. Antiviral Therapy, 1998: 3: 35 Abstract 51.
Phenotypic drug susceptibility determination of recombinant virus isolates is described in Hertogs et al. A Rapid Method for Simultaneous Detection of Phentypic Resistance to Inhibitors of Protease and Reverse Transcriptase in Recombinant HIV-1 Isolates from Patients Treated with Antiretroviral Drugs. Antimicrob. Agents Chemother. 1998; 42(2): 269-276. The basic principle of the Antivirogram® technology is the construction of chimeric HIV-1 strains composed of the protease (PR) and reverse transcriptase (RT) gene sequences which are isolated and amplified from patient viral RNA. Amplicons are subsequently transfected into CD4+T cells together with a standard laboratory isogenic (HXB2) HIV-1 DNA construct from which the PR/RT gene sequences were deleted. After homologous recombination, new viruses whose diversity reflects the original population amplified from the plasma are produced at high level from these cells.
The virus infectivity (CCID50) is determined by an end-point dilution method. The titer is calculated from the degree of infection, measured by the intensity of reporter-gene signal as generated by serial dilutions of the virus shock. The chimeric (clinical isolates and wild-type reference) viruses are then analyzed for their phenotypic sensitivity (i.e. susceptibility) to the different PR and RT-inhibitors in an automated reporter gene-based assay using serial dilutions of the compound. The standardisation of the Antivirogram®n assay allows for simultaneous testing of all clinically approved drugs in one 384-well microtiter plate. The experimental drugs are included in separate plates. Each plate contains multiple replicates of mock-infected wells, virus-infection control wells and blank (medium-only) well. All plates are tested in duplicate. 50% Inhibitory concentrations are calculated based on reporter signals obtained through optical reading of 384-well plates containing serial dilutions of compounds, a normalised quantity of virus and by taking into account all relevant control wells. Approval (or not) is done according to critical ranges and settings as described in the corresponding VIRCO Standard Operating Procedure.
A more detailed description of the protocol is as follows. Samples were stored frozen. […] To confirm the genotypic pattern, genotyping (ABI-sequencing) was performed after recombination and culture of the laboratory strains by analysis of cell viability, calculation of results (dose-response curves, IC50 values), and reporting of data.

[3] = system: drug-resistant HIV-1 in MT-2; assay: microbe, parasite or virus in culture; details: for Fold-resistance: MT-2
[4] = system: drug-resistant HIV-1 in PBMC; assay: microbe, parasite or virus in culture; details: PBMC; for EC50: Human immunodeficiency virus 1, PBMC
[5] = system: drug-resistant HIV-1 in HeLa HT4-6C; assay: microbe, parasite or virus in culture; details: for EC50: Human immunodeficiency virus 1, HeLa
[6] = system: HIV-1 replication in human PBM cells; assay: microbe, parasite or virus in culture
Experimental: Cells and viruses. […] Antimicrobial Agents Chemother 1992;36(11): 2423-2431.
Cell pellets were washed, centrifuged, lysed and the proviral DNA extracted as previously described. Cytotoxicity of the compounds was determined using the Promega Cell Titer 96 dye uptake assay (Madison, Wis.) in 1-2 day PHA-stimulated PBM cells after 5 days in culture. The median effective concentration (EC50) and inhibitory concentration (IC50) were derived from the computer-generated median effect plot of the dose-effect data, as described previously.

[7] = HIV-1 (A012D:M41L?/D67N/K70R/T215F/K219Q)
[8] = clinical isolate (pre) prior to long-term ZDV monotherapy, row HIV-1 (A012D), read-out: Untreated EC50
[9] = clinical isolate HIV-1 (A012D:M41L?/D67N/K70R/T215F/K219Q), read-out: Selected Varient EC50
[10] = Human immunodeficiency virus 1, PBMC, 144 h

Cc1cn([C@H]2C[C@H](N=[N+]=[N-])[C@@H](CO)O2)c(=O)[nH]c1=O [AZT, 3′-azido-3′-deoxythymidine]
Fold-resistance ([1]; HIV-1 (A-161)): 60
Fold-resistance ([1]; HIV-1 (C-246)): 35
Fold-resistance ([1]; HIV-1 (G-68)): 33
Fold-resistance ([1]; HIV-1 (R-102)): 60
Fold-resistance ([1]; HIV-1 (X-78)): 55
EC50 ([1]; Human immunodeficiency virus 1, MT4, clinical isolate (pre) prior to long-term ZDV monotherapy, row HIV-1 (A-161), read-out: Untreated EC50): 20 nM
EC50 ([1]; Human immunodeficiency virus 1, MT4, clinical isolate (pre) prior to long-term ZDV monotherapy, row HIV-1 (C-246), read-out: Untreated EC50): 20 nM
EC50 ([1]; Human immunodeficiency virus 1, MT4, clinical isolate (pre) prior to long-term ZDV monotherapy, row HIV-1 (G-68), read-out: Untreated EC50): 20 nM
EC50 ([1]; Human immunodeficiency virus 1, MT4, clinical isolate (pre) prior to long-term ZDV monotherapy, row HIV-1 (R-102), read-out: Untreated EC50): 20 nM
EC50 ([1]; Human immunodeficiency virus 1, MT4, clinical isolate (pre) prior to long-term ZDV monotherapy, row HIV-1 (X-78), read-out: Untreated EC50): 20 nM
EC50 ([1]; Human immunodeficiency virus 1, MT4, clinical isolate HIV-1 (A-161), long-term ZDV monotherapy, read-out: Selected Varient EC50): 1200 nM
EC50 ([1]; Human immunodeficiency virus 1, MT4, clinical isolate HIV-1 (C-246), long-term ZDV monotherapy, read-out: Selected Varient EC50): 700 nM
EC50 ([1]; Human immunodeficiency virus 1, MT4, clinical isolate HIV-1 (G-68), long-term ZDV monotherapy, read-out: Selected Varient EC50): 650 nM
EC50 ([1]; Human immunodeficiency virus 1, MT4, clinical isolate HIV-1 (R-102), long-term ZDV monotherapy, read-out: Selected Varient EC50): 1200 nM
EC50 ([1]; Human immunodeficiency virus 1, MT4, clinical isolate HIV-1 (X-78), long-term ZDV monotherapy, read-out: Selected Varient EC50): 1100 nM
fold Resistance ([2]; RT genotype D67D/N, K70R, M184V, G333E): 0.9
fold Resistance ([2]; RT genotype D67N, K70R, K219Q/K, 181C/Y): 12
fold Resistance ([2]; RT genotype K70R, K219Q): 5
fold Resistance ([2]; RT genotype M41L, D67N, K70R, K103N, L210W, T215Y, K219N/K): >36
fold Resistance ([2]; RT genotype M41L, L210L, T215Y, Y181C/Y, M184M/V): >36
fold Resistance ([2]; RT genotype M41L, L210W, T215Y): 24
fold Resistance ([2]; RT genotype M41L, T69S-V-T, L210W, T215Y, G333E): >65
fold Resistance ([2]; RT genotype M41L, T215Y, M184V): 5.5
fold Resistance ([2]; RT genotype T69G, Q151M, M184V/M): >65
fold Resistance ([2]; RT genotype T69I, K70R, Q151M, M184V): >65
fold Resistance ([2]; RT genotype T69S-E, M184I, T215Y): >65
fold Resistance ([2]; RT genotype T215Y): 13.5
fold Resistance ([2]; recombinant isolate, RT genotype K70R): 0.7
Fold-resistance ([3]; HIV-1 (D67N/K70R/M184V/T215Y/K219Q)): 5
Fold-resistance ([3]; HIV-1 (D67N/K70R/T215Y/K219Q)): 33
Fold-resistance ([3]; HIV-1 (M41L/D67N/M184V/H208Y/L210W/R211K/L214F/T215Y)): >550
Fold-resistance ([3]; HlV-1 (M184V)): 1.5
EC50 ([3]; Human immunodeficiency virus 1, MT2, read-out: Untreated EC50): 6 nM
Fold-resistance ([4]; 1 (T215Y/M41L)): 11
Fold-resistance ([4]; (M184V/T215Y)): 5.8
Fold-resistance [4, 7]: 240
Fold-resistance ([4]; HIV-1 (D67N/K70R/T215Y/K219Q)): 9
Fold-resistance ([4]; HIV-1 (K65R)): 2
Fold-resistance ([4]; HIV-1 (L74V)): 0.8
Fold-resistance ([4]; HIV-1 (M184V)): 0.8
Fold-resistance ([4]; HIV-1 (T215Y)): 2.5
EC50 [4, 8]: 1 nM
EC50 [4, 9]: 240 nM
EC50 ([4]; molecular clone 1 (T215Y/M41L), read-out: Selected Varient EC50): 42 nM
EC50 ([4]; molecular clone (M184V/T215Y), read-out: Selected Varient EC50): 23 nM
EC50 ([4]; molecular clone HIV-1 (D67N/K70R/T215Y/K219Q), read-out: Selected Varient EC50): 36 nM
EC50 ([4]; molecular clone HIV-1 (K65R), read-out: Selected Varient EC50): 8 nM
EC50 ([4]; molecular clone HIV-1 (L74V), read-out: Selected Varient EC50): 3 nM
EC50 ([4]; molecular clone HIV-1 (M184V), read-out: Selected Varient EC50): 3 nM
EC50 ([4]; molecular clone HIV-1 (T215Y), read-out: Selected Varient EC50): 10 nM
EC50 ([4]; parent strain HIV-1 (xxLAI), row 1 (T215Y/M41L), read-out: Untreated EC50): 4 nM
EC50 ([4]; parent strain HIV-1 (xxLAI), row (M184V/T215Y), read-out: Untreated EC50): 4 nM
EC50 ([4]; parent strain HIV-1 (xxLAI), row HIV-1 (D67N/K70R/T215Y/K219Q), read-out: Untreated EC50): 4 nM
EC50 ([4]; parent strain HIV-1 (xxLAI), row HIV-1 (K65R), read-out: Untreated EC50): 4 nM
EC50 ([4]; parent strain HIV-1 (xxLAI), row HIV-1 (L74V), read-out: Untreated EC50): 4 nM
EC50 ([4]; parent strain HIV-1 (xxLAI), row HIV-1 (M184V), read-out: Untreated EC50): 4 nM
EC50 ([4]; parent strain HIV-1 (xxLAI), row HIV-1 (T215Y), read-out: Untreated EC50): 4 nM
Fold-resistance [5, 7]: 200
Fold-resistance ([5]; HIV-1 (A018C:D67N/K70R/T215Y/K219Q)): 400
Fold-resistance ([5]; HIV-1 (A036DD:M41L/D67N/K70R/T215Y)): 800
Fold-resistance ([5]; HIV-1 (P022C:M41L?/D67N/K70R/T215F/K219Q)): 187
Fold-resistance ([5]; HIV-1 (P026B:M41L?/D67N/K70R/T215Y)): 280
EC50 [5, 8]: 10 nM
EC50 ([5]; clinical isolate (pre) prior to long-term ZDV monotherapy, row HIV-1 (A018C), read-out: Untreated EC50): 10 nM
EC50 ([5]; clinical isolate (pre) prior to long-term ZDV monotherapy, row HIV-1 (A036DD), read-out: Untreated EC50): 7 nM
EC50 ([5]; clinical isolate (pre) prior to long-term ZDV monotherapy, row HIV-1 (P022C), read-out: Untreated EC50): 30 nM
EC50 ([5]; clinical isolate (pre) prior to long-term ZDV monotherapy, row HIV-1 (P026B), read-out: Untreated EC50): 10 nM
EC50 [5, 9]: 2000 nM
EC50 ([5]; clinical isolate HIV-1 (A018C:D67N/K70R/T215Y/K219Q), read-out: Selected Varient EC50): 4000 nM
EC50 ([5]; clinical isolate HIV-1 (A036DD:M41L/D67N/K70R/T215Y), read-out: Selected Varient EC50): 5500 nM
EC50 ([5]; clinical isolate HIV-1 (P022C:M41L?/D67N/K70R/T215F/K219Q), read-out: Selected Varient EC50): 5600 nM
EC50 ([5]; clinical isolate HIV-1 (P026B:M41L?/D67N/K70R/T215Y), read-out: Selected Varient EC50): 2800 nM
EC90 [6]: 21 nM and 14 nM
EC90 ([6]; Human immunodeficiency virus 1, PBMC): 13 nM
inhibition at 0.1 µM [6, 10]: -12.9%
inhibition at 1 µM [6, 10]: 67.6%
inhibition at 10 µM [6, 10]: 83.2%
inhibition at 100 µM [6, 10]: 98.2%
